What was measured:
Mus musculus [1] = organism: Mus musculus; experiment: animal or person; assay type: functional; settings: po
Description: In vivo inhibitory activity against mouse hepatic cholesterol synthesis administered orally at 24 mpk

Mus musculus [2] = experiment: In vivo inhibitory activity against mouse hepatic cholesterol synthesis administered orally at 48 mpk; assay type: functional; settings: po
Squalene synthase = target: T1, Squalene synthase (Rattus norvegicus, UniProt Q02769); experiment: In vitro inhibitory activity against rat squalene synthase
T1 sequence (Q02769 whole entry): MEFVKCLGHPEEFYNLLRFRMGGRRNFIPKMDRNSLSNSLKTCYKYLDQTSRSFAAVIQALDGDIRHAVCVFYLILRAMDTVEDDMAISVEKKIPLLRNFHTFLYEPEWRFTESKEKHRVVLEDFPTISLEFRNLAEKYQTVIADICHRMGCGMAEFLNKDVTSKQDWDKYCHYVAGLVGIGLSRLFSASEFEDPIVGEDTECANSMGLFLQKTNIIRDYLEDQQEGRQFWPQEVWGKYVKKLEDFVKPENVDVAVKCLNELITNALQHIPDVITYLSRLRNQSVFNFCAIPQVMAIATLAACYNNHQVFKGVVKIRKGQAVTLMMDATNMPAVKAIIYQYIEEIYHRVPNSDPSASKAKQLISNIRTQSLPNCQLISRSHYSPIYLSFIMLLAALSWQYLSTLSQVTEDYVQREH

Mus musculus [3] = experiment: In vivo inhibitory activity against mouse hepatic cholesterol synthesis administered subcutaneously; assay type: functional; settings: sc
Mus musculus [4] = experiment: In vivo inhibitory activity against mouse hepatic cholesterol synthesis administered orally at 40 mpk; assay type: functional; settings: po

IC50 (Squalene synthase) | Structure (SMILES) | inhibition in vivo at 24 mg/kg (Mus musculus [1]) | inhibition in vivo at 48 mg/kg (Mus musculus [2]) | ED50 (Mus musculus [3]) | inhibition in vivo at 40 mg/kg (Mus musculus [4])
– | C=C(CCC12OC(C(=O)O)C(O)(C(=O)O)C(C(=O)O)(O1)[C@H](O)[C@H]2O)[C@@H](OC(C)=O)[C@H](C)Cc1ccccc1 (stereo partly drawn) | 34% | – | – | –
0.26 µM | C/C(=C\C(C)Cc1ccccc1)CCCCCC(C(=O)O)C(O)(CC(=O)O)C(=O)O (stereo not drawn) | – | 0% | 15 mg/kg | –
9 µM | CCCCCCCCCCCCCCCCC(C(=O)O)C(O)(CC(=O)O)C(=O)O (stereo not drawn) | – | 0% | – | –
– | C=C(CCC12OC(C(=O)O)C(O)(C(=O)O)C(C(=O)O)(O1)[C@H](OC(=O)/C=C/[C@@H](C)C[C@@H](C)CC)[C@H]2O)[C@@H](OC(C)=O)[C@H](C)Cc1ccccc1 (stereo partly drawn) [ZARAGOZIC ACID A] | – | – | 0.2 mg/kg | 20%
